Assay results reported in paper PMC7377361, “Pressurized DNA state inside herpes capsids—A novel antiviral target” (PLoS Pathogens, 2020).
Where no end group is shown, it is not given here.

Experiments:
[1] = system: MEF cell line
Excerpt: We also determined cytotoxicity in the murine MEF cell line, relevant to animal studies.

[2] = In vivo toxicity studies in mice (NIH/NIAID preclinical service); settings: for %Lymphocyte / Hematocrit / WBC / AST / Alb:Glob Ratio / Albumin / Amylase / Bile Acids / Cholesterol / Creatine Kinase / GGT / Globin / Total Protein / Triglyceride / BUN / Ca:Phos Ratio / Calcium / Chloride / Glucose / K / Na / Na:K Ratio / Phosphorus / Uric Acid: Mean; for %Lymphocyte / Hematocrit / WBC: CBC (n=1-2); for AST / Alb:Glob Ratio / Albumin / Amylase / Bile Acids / Cholesterol / Creatine Kinase / GGT / Globin / Total Protein / Triglyceride: LIVER (n=5); for BUN / Ca:Phos Ratio / Calcium / Chloride / Glucose / K / Na / Na:K Ratio / Phosphorus / Uric Acid: RENAL (n=5)
Method: A control group was treated with PBS. […] No signs of distress or significant weight loss were observed during the 4 days of treatment. […]
B. In vivo toxicity studies in mice for bPEI 600 and DAB-Am-4. Experiments were conducted through NIAID/NIH preclinical service agreement No HHSN272201700017I/ […]
Procedures and Endpoints:
1- Baseline weights of all mice
2- IP treatment (twice a day, for 4 days)
3- Daily assessment of weights and condition
4- All animals sacrificed the following morning after the last evening treatment 5- Blood samples collected by IC stick for lab tests (liver, spleen and blood profiles) 6- Internal organs examined for signs of gross tissue toxicity
1. Toxicity evaluation of bPEI 600 Da in mice.
A toxicity screen was performed in uninfected mice treated with 3 doses of bPEI 600 Da, administered for 4 days. In this study, 3 doses of 5, 10 and 25 mg/kg/day were administered twice daily IP for 4 days (n=4/group). A control group was treated with the vehicle (PBS). The mice were examined daily and the weights and general condition were recorded daily. To examine liver, renal and blood function parameters, blood samples were obtained by intracardiac puncture at the end of the study (the following day after last dose) and the mice were sacrificed to examine the internal organs for signs of gross tissue toxicity.
The weights were recorded
In order to confirm the results of the lab results obtained in the toxicity study, a second group of slightly larger mice were treated with the high and the low doses of bPEI 600 Da (25 mg/kg and 5 mg/kg, n=6/group) and the vehicle control (PBS, n=4) for 4 days. Blood samples were collected at the end of the study for liver and renal chemistry profiles. The results are shown in the next […]
REN AL PBS 5 mg/kg 25 mg/kg
LIVER PBS 5 mg/kg 25 mg/kg
Al b:Gl ob R a ti o 1 1 1 […]
obtained from the second group of mice treated with bPEI 600 Da for 4 days.
No signs of distress or significant weight loss were ere observed during the […]
show significant differences with the results obtained in the PBS treated group of control mice.
Statistical analysis: Means were compared by Student’s t test, and mortality was compared by Fisher’s exact test, where applicable.
Ethics regulation of Laboratory animals: Animals were housed in facilities approved by the Association for Assessment and Accreditation of Laboratory Animal Care and Use Committee
2. Toxicity evaluation of DAB-Am-4 in mice.
A toxicity screen in uninfected mice was performed. 2 doses of 5 and 25 mg/kg/day were administered twice daily IP for 4 days (n=6/group). A control group was treated with the vehicle […]
The mice were examined daily and the weights and general condition were recorded. […]

[3] = Cytotoxicity assay in uninfected HFF-1 cells; settings: human
Method: In parallel, for each DNA condensing compound, we determined the cytotoxicity concentration (CC50 value) using standard in vitro cellular replication assays in human foreskin fibroblast (HFF) cells (used as a standard for herpesvirus replication in vitro assays for antiviral compound tests)[48]. Cytotoxicity assays were performed on a parallel set of six-well plates containing confluent monolayers of HFF-1 cells at the same cell amount as used for antiviral plaque reduction assays for EC50 value determination, but cells were uninfected[48].
Cytotoxicity assays were performed on a parallel set of six-well plates containing HFF-1 cells that received the same compound concentrations as used for the antiviral assays but remained uninfected. […]
Each compound was evaluated in a standard cytotoxicity assay by standard methods [100]. […] The optical density was then determined at 550 nm and CC50 values were interpolated from the experimental data.
The inhibition of either Vero cell or HFF-1 cell proliferation was used to refine estimates of cytotoxicity for the compounds and was performed according to standard procedures [101]. […] The plates were incubated for 72 h at 37°C; the cells were then dislodged with trypsin and counted on a Beckman Coulter Counter. […]

[4] = mice, 25 mg/kg/day twice daily IP, 4 days
[5] = mice, 5 mg/kg/day twice daily IP, 4 days

Compound: NCCCN(CCCN)CCCCN(CCCN)CCCN [DAB-Am-4]
- CC50 [1]: 22 µM
- weight loss [2, 4]: ~ 10%
- weight loss from baseline [2, 4]: 2.0 g
- tolerability ([2]; mice, 5, 10 and 25 mg/kg/day, twice daily IP, 4 days): tolerated well
- signs of acute toxicity (lab tests) ([2]; mice, 5 and 25 mg/kg/day DAB-Am-4, 5 mg/kg/day DAB-Am-8): no conclusive signs of acute toxicity
- signs of distress during the observation period ([2]; mice, low dose 5 mg/kg/day): no significant signs
- %Lymphocyte [2, 5]: 67%
- Hematocrit [2, 5]: 43
- WBC [2, 5]: 7
- AST [2, 5]: 402
- Alb:Glob Ratio [2, 5]: 1
- Albumin [2, 5]: 3
- Amylase [2, 5]: 792
- Bile Acids [2, 5]: 134
- Cholesterol [2, 5]: 91
- Creatine Kinase [2, 5]: 2340
- GGT [2, 5]: < 1
- Globin [2, 5]: 2
- Total Protein [2, 5]: 5
- Triglyceride [2, 5]: 118
- BUN [2, 5]: 35
- Ca:Phos Ratio [2, 5]: 1
- Calcium [2, 5]: 9
- Chloride [2, 5]: 104
- Glucose [2, 5]: 221
- K [2, 5]: 7
- Na [2, 5]: 143
- Na:K Ratio [2, 5]: 22
- Phosphorus [2, 5]: 11
- Uric Acid [2, 5]: 3
- %Lymphocyte [2, 4]: 61%
- Hematocrit [2, 4]: 36
- WBC [2, 4]: 4
- AST [2, 4]: 414
- Alb:Glob Ratio [2, 4]: 1
- Albumin [2, 4]: 3
- Amylase [2, 4]: 760
- Bile Acids [2, 4]: 13
- Cholesterol [2, 4]: 85
- Creatine Kinase [2, 4]: 3089
- GGT [2, 4]: < 1
- Globin [2, 4]: 2
- Total Protein [2, 4]: 5
- Triglyceride [2, 4]: 149
- BUN [2, 4]: 36
- Ca:Phos Ratio [2, 4]: 1
- Calcium [2, 4]: 9
- Chloride [2, 4]: 106
- Glucose [2, 4]: 182
- K [2, 4]: 6
- Na [2, 4]: 147
- Na:K Ratio [2, 4]: 25
- Phosphorus [2, 4]: 9
- Uric Acid [2, 4]: 5

Compound: RRRRR [Arg^5+]
- CC50 at 7 days [3]: 83 µM
